{"source": "patent US20220296584A1", "about": "“Membrane Active Molecules” (priority 2017, published 2022)", "key": {"mouse": {"tested_on": "mouse", "assay": "Anesthetic effect in mice after subcutaneous or intravenous injection of aqueous solutions", "assay_type": "in vivo", "protocol": "Butyric acid was dissolved in water to form an 8 M solution. 0.5 mL of the 8 M solution of butyric acid was injected subcutaneously (at the back of the neck) into the mouse.\n3-hydroxybutyric acid was dissolved in water to form 1 M, 1.5 M, and 2 M solutions. 0.2 mL of a 1.5 M solution of 3-hydroxybutyric acid was injected into a tail vein of a CD-1 mouse. […] This was repeated for at least 2 more times on subsequent days.\nEthylmalonic acid was dissolved in water to form 2 M, 3 M, and 4 M solutions. 0.2 mL of a 3 M solution of ethylmalonic acid was injected into a tail vein of a mouse. […] This was repeated for at least 2 more times on subsequent days.\nEthylmalonic acid was dissolved in water to form a 4 M solution. 0.5 mL of the 4 M solution of ethylmalonic acid was injected subcutaneously into the mouse."}, "CF-1 mice": {"tested_on": "CF-1 mice", "assay": "Anticonvulsant test: intravenous metrazol (pentylenetetrazol) infusion, time to twitch and seizure", "assay_type": "in vivo", "conditions": "individual CF-1 mouse (Entry)", "experimental": "CF-1 mice were used in this study. Number 20 PE tubing to cannulate a mouse tail vein was used. An infusion pump was used to deliver a solution at a rate of 0.34 mL/min. A hemostat was used to prevent backflow in the PE tubing before the experiment stated. To begin the experiment, the hemostat that was clamped to the PE 20 tubing was removed, the infusion of the solution was started into the tail IV of the mouse, and the timer was started.\nThe study reflects the time in seconds from the start of the infusion to the time of twitch and onset of seizure, or 90 seconds, whichever is sooner. When the seizure occurs, the infusion is turned off.\nAs a control, metrazol (pentylenetetrazol) in a 0.5% solution (5 mg/mL) in water was prepared. Pentylenetetrazol is used as a control to study seizure phenomena in and to identify compounds that may control seizure susceptibility. Solutions of 8 M butyric acid and 1.5 M 3-hydroxybutyric acid were made.\nThe time to twitch and time to seizure of the mouse in seconds is recorded in Tables 3-5, below."}, "Tadpoles": {"tested_on": "Tadpoles", "assay": "Tadpole movement suppression (anesthetic efficacy)", "assay_type": "in vivo", "experimental": "Tadpoles were placed in a petri dish containing aquarium water. Four to eight tadpoles were placed in each petri dish. The aquarium water contained the specified test compound at the listed concentration. When the tadpoles stopped moving, a plastic rod was used to elicit motion once again by contact between the rod and tadpole. […] From this and the number of subjects, the percent of tadpoles in which movement was suppressed were calculated.\nAfter 1 to 30 minutes, they were again contacted with a rod to ensure the anesthetic effect had worn off\nIn some examples, subanesthetic concentrations of ethanol were added into the aquarium water. Tadpoles in which movement was prevented with exposure to a test compound and ethanol but not with exposure to a test compound alone were classified as partial anesthetics."}, "mice": {"tested_on": "mice", "conditions": "intravenously; for Observed effect on the animals: 62.5 mM solution in intralipid"}, "[1]": {"conditions": "1.5 M 3-hydroxybutyric acid solution plus metrazol"}, "[2]": {"conditions": "8 M butyric acid solution plus metrazol"}, "[3]": {"conditions": "0.5% metrazol tail vein infusion 0.34 mL/min"}}, "note": "Where “and” joins values, the source holds several entries; their conditions need not be identical. Equal entries are not always repeated. Where two headings read alike, the source gives them in different places."}
{"compound": "CC(O)CC(=O)O", "note": "(stereo not drawn) [3-hydroxybutyric acid]", "values": [{"measurement": "Observed effect on the mouse", "setting": "mouse; 0.2 mL of 1.5 M solution in water, tail vein, CD-1 mouse", "result": "became unconscious or anesthetic"}, {"measurement": "Observed effect on the mouse", "setting": "mouse; 1 M solution in water, tail vein, CD-1 mouse", "result": "did not have any observable effect"}, {"measurement": "Lethality", "setting": "mouse; 2 M solution in water, tail vein, CD-1 mouse", "result": "lethal"}, {"measurement": "3-Hydroxybutyric Acid and Metrazol Time to Seizures", "setting": "CF-1 mice; [1]", "result": "74 seconds and 53 seconds (3×) and 48 seconds (2×) and 65 seconds and 61 seconds"}, {"measurement": "3-Hydroxybutyric Acid and Metrazol Time to Twitch", "setting": "CF-1 mice; [1]", "result": "54 s and 49 s and 47 s and 38 s and 50 s and 45 s and 41 s and 56 s"}]}
{"compound": "CCCC(=O)O", "note": "[Butyric acid]", "values": [{"measurement": "Movement suppressed (%)", "setting": "Tadpoles; Concentration (mM): 62.5", "result": 100, "unit": "%"}, {"measurement": "Movement suppressed (%)", "setting": "Tadpoles; Concentration (mM): 125", "result": 100, "unit": "%"}, {"measurement": "Movement suppressed (%)", "setting": "Tadpoles; Concentration (mM): 250", "result": 100, "unit": "%"}, {"measurement": "Movement suppressed (%)", "setting": "Tadpoles; Concentration (mM): 500", "result": 100, "unit": "%"}, {"measurement": "Lethality", "setting": "mouse; 0.2 mL of 8 M solution in water, intravenously through mouse tail vein", "result": "lethal"}, {"measurement": "Time until mouse woke up", "setting": "mouse; 0.5 mL of 8 M solution in water, subcutaneously (back of the neck), mouse", "result": "several hours later"}, {"measurement": "Butyric Acid and Metrazol Time to Seizures", "setting": "CF-1 mice; [2]", "result": "51 seconds and 50 seconds (2×) and 47 seconds and 57 seconds (3×) and 42 seconds and 66 seconds and 41 seconds and 44 seconds and 38 seconds and 65 seconds"}, {"measurement": "Butyric Acid and Metrazol Time to Twitch", "setting": "CF-1 mice; [2]", "result": "38 seconds and 42 seconds and 44 seconds and 50 seconds and 34 seconds (2×) and 53 seconds (2×) and 48 seconds and 36 seconds (2×) and 35 seconds (2×)"}]}
{"compound": "CCC(C(=O)O)C(=O)O", "note": "[Ethyl Malonic Acid, 2-Ethylmalonic acid]", "values": [{"measurement": "Movement suppressed (%)", "setting": "Tadpoles; Concentration (mM): 16", "result": 0, "unit": "%"}, {"measurement": "Movement suppressed (%)", "setting": "Tadpoles; Concentration (mM): 62.5", "result": 0, "unit": "%"}, {"measurement": "Movement suppressed (%)", "setting": "Tadpoles; Concentration (mM): 125", "result": 100, "unit": "%"}, {"measurement": "Movement suppressed (%)", "setting": "Tadpoles; Concentration (mM): 250", "result": 100, "unit": "%"}, {"measurement": "Observed effect on the mouse", "setting": "mouse; 0.2 mL of 3 M solution in water, tail vein, mouse", "result": "became unconscious"}, {"measurement": "Observed effect on the mouse", "setting": "mouse; 0.5 mL of 4 M solution in water, subcutaneously, mouse", "result": "became sedated, anesthetized, or lose consciousness"}, {"measurement": "Observed effect on the mouse", "setting": "mouse; 2 M solution in water, tail vein, mouse", "result": "did not have any observable effect"}, {"measurement": "Lethality", "setting": "mouse; 4 M solution in water, tail vein, mouse", "result": "lethal"}]}
{"compound": "C1CCc2nnnn2CC1", "note": "[Metrazol, pentylenetetrazol, reference compound]", "values": [{"measurement": "Metrazol alone Time to Seizures", "setting": "CF-1 mice; [3]", "result": "43 seconds (2×) and 42 seconds (2×) and 59 seconds and 45 seconds and 39 seconds and 49 seconds (2×)"}, {"measurement": "Metrazol alone Time to Twitch", "setting": "CF-1 mice; [3]", "result": "34 seconds (2×) and 33 seconds and 36 seconds (2×) and 37 seconds and 52 seconds and 31 seconds and 43 seconds"}]}
{"compound": "CCOC(=O)[C@@H](O)c1ccccc1", "note": "[ethyl (S)-(+)-mandelate]", "values": [{"measurement": "Observed effect on the animals", "setting": "mice", "result": "lethargic and those loss coordination"}, {"measurement": "Lethality", "setting": "mice; 250 mM solution in intralipid", "result": "lethal"}, {"measurement": "Lethality", "setting": "mice; 1M solution in intralipid", "result": "lethal"}]}
{"compound": "CCCC(=O)OCC", "note": "[ethyl butyrate]", "values": [{"measurement": "Observed effect on the animals", "setting": "mice", "result": "lethargic and those loss coordination"}, {"measurement": "Lethality", "setting": "mice; 250 mM solution in intralipid", "result": "lethal"}, {"measurement": "Lethality", "setting": "mice; 1M solution in intralipid", "result": "lethal"}]}
{"compound": "ethyl isovaleric acid", "values": [{"measurement": "Observed effect on the animals", "setting": "mice", "result": "lethargic and those loss coordination"}]}
